The source of these data is paper PMC8482815, “Targeting Host Glycolysis as a Strategy for Antimalarial Development” (Frontiers in Cellular and Infection Microbiology, 2021).

Read-outs that look alike come from different tables or passages of the source.

Series [1] has as its system P. berghei ANKA. The series is classed as in vivo, Swiss Webster mice. The settings on record: for parasitemia: d4, blood smear Giemsa, treated from day 2, control 7.8±3.3%. As to the method:
(§1) Groups of five female Swiss-Webster mice were injected intraperitoneally (i.p.) with 10^3 luciferase-expressing P. berghei ANKA parasites ([Franke-Fayard et al., 2008]). Forty-eight hours post infection, mice were injected i.p. daily for five days with either 200µL of 2% methylcellulose/0.5% Tween80, 40mg/kg chloroquine, 100mg/kg HEX, 30mg/kg POM-HEX, or 5mg/kg POM-SF. Enolase inhibitors dosing were selected as approximately 3-fold lower than the maximum acutely tolerated dose for each compound by i.p. injection. Day 7 post-infection, mice were injected with 150mg/kg D-luciferin potassium salt in PBS (GoldBio) and imaged on an IVIS 100 and parasite burden assessed (Xenogen LivingImage).
The glucose mimetic 2-DG and enolase inhibitors POM-HEX, and HEX were evaluated in the P. berghei mouse model of cerebral malarial, as previously described ([Wang et al., 2018]). Briefly, in addition to groups of mice (n = 5) dosed as described above for POM-HEX and HEX, 2-DG was administered to an additional group (n = 5) at 200mg/kg twice daily and all were monitored for survival, parasitemia (blood smear Giemsa), and clinical signs of cerebral malaria (paralysis, deviation of the head, ataxia, convulsions, and coma) over 15 days.

For series [2], the system named is P. falciparum. More on the design: method as in Vennerstrom et al., 1999; Phillips et al., 2015. Particulars: ref Vennerstrom et al., 1999; Phillips et al., 2015; read-out: EC50, in vitro potency of other antimalarial compounds; cited from earlier work.
Series [3] deals with P. falciparum strain 3D7. The series can be described thus: Plasmodium falciparum growth inhibition assay (Picogreen DNA content, three-day incubation). The class given is cell-based. The settings on record: for S.I. + pyruvate (Supplemental Table 4): MetHb EC50 / parasite EC50, with pyruvate; for S.I. - pyruvate (Supplemental Table 4): MetHb EC50 / parasite EC50, without pyruvate; for EC50: Plasmodium falciparum; for S.I. Fold Change (Supplemental Table 4): change in S.I. with versus without pyruvate; for T.I. Fold change: change in T.I. with versus without 1mM pyruvate; for T.I. + pyruvate / T.I. - pyruvate: therapeutic index = [EC50 for MetHb formation]/[EC50 for parasite growth inhibition]; for T.I. + pyruvate: with 1mM pyruvate; for T.I. - pyruvate: without pyruvate. As to the method:
(§2) Banked blood (Saint Louis Children’s Hospital) and fresh blood [healthy donors] was washed and stored at 50% hematocrit at 4°C up to 1 month past the clinical expiration date and collection date, respectively. Parasite strains provided by the Malaria Research and Reference Reagent Resource Center (MR4) as follows: 3D7 (MRA-102); K1 (MRA-159); D10 (MRA-201); and IPC-5202 (MRA-1240). Unless indicated, erythrocytes were cultured as previously described at 2% hematocrit in complete media (incomplete media supplemented with 27mM sodium bicarbonate, 11mM glucose, 5mM HEPES, 1mM sodium pyruvate, 0.37mM hypoxanthine, 0.01mM thymidine, 10µg/mL gentamicin, and 0.5% Albumax I (Thermo-Fisher) under 5% O2/5% CO2/90% N2 atmosphere at 37°C ([Guggisberg et al., 2014]).
Asynchronous cultures diluted to 1% parasitemia in 100μL wells were subjected to drug dilutions, solvent controls, and untreated uninfected erythrocyte controls in technical duplicates. Following a three-day incubation, DNA content was quantified using Picogreen (Life Technologies), as previously described ([Corbett et al., 2004]). Half-maximal effective concentrations (EC50) were determined from nonlinear regression of three biological replicates (GraphPad Prism).

Series [4] concerns human erythrocytes. Description: Detection and quantification of MetHb formation in cultured erythrocytes. The settings on record: Homo sapiens, Erythrocyte. The series is classed as cell-based. On the procedure:
as §2
MetHb was detected by measuring absorbance in the 630-640nm range, which is specific from other hemoglobin subforms (oxyhemoglobin, deoxyhemoglobin, and carboxyhemoglobin). Supernatants were removed and erythrocyte pellets were fully lysed and diluted, as described above. The absorption peak for oxyhemoglobin (575nm) and MetHb (630nm) were measured and the EC50 of MetHb formation was determined using non-linear regression analysis (GraphPad Prism).

Details of series [5]: method as in Lin et al., 2020. The settings on record: cynomolgus monkeys, 100 mpk SC; replotted, ref Lin et al., 2020; cited from earlier work.
Series [6] in a line: Pharmacokinetics of HEX in mice (plasma, NMR 31P-1H HSQC). The series is classed as in vivo. As to the method:
(§3) Adult male cynomolgus monkeys (Macaca fascicularis) with weight of 2.5-3.5 kg were used for PK studies (n = 1). To prepare HEX for injection, a stock solution of 150 mg/mL HEX in water with final pH of 7.2-7.4 was prepared. Just prior to injection, this stock was diluted with saline to desired concentration and filtered with 0.22 µm filter. A dose of 100 mg/Kg of HEX was injected subcutaneously in an overnight fasted monkey. Blood samples were collected at the following time points: before injection, 1 hr, 2 hrs, 4 hrs (when food was also given to a monkey), 8 hrs, and 24 hrs after injection. Also, a dose of 400 mg/Kg of HEX was administrated through oral gavage. To compare the PK studies in non-human primates with rodents, a 400 mg/kg dose of HEX was also injected subcutaneously in female mice (n = 1), and blood was collected before, 1 hr, and 2 hrs after injection. HEX concentrations in plasma were measured by using nuclear magnetic resonance (NMR) spectroscopy. Two hundred microliters of plasma were extracted with four hundred microliters of −20°C precooled methanol and incubated in −20°C for 45 minutes followed by spinning down in 4°C at 17,000 × g for 30 min to separate supernatant. The supernatant then was concentrated by speedvac for 4 hours and dissolved in 470 μL D2O (Sigma Aldrich,151882) and 30 μL D2O with 3%TPS as an internal standard (Sigma Aldrich, 450510) for NMR studies. NMR experiments were performed on Bruker Avance III HD 500 MHz spectrometer equipped with cryoprobe and Bruker 300 MHz with broad band observe probe. […] NMR spectra were analyzed using 3.1 version of TopSpin. HEX was quantified in the sample with high concentration of the drug (100 mpk, 1 hr after SC injection) by comparing integrals of HEX and TSP (reference) in 1H spectra. […]

The nature of series [7]: Pharmacokinetics of HEX in non-human primates (plasma, NMR 31P-1H HSQC). The series is classed as in vivo, cynomolgus monkeys (Macaca fascicularis). As to the method: as §3
The test system of series [8] is P. falciparum IPC-5202 (chloroquine and artemisinin resistant). Description: Plasmodium falciparum growth inhibition assay, drug-resistant line IPC-5202. The class given is cell-based. Particulars: chloroquine and artemisinin resistant, means ± s.e.m, read-out: EC50 (nM), P. falciparum IPC-5202. On the procedure: (§4) Banked blood (Saint Louis Children’s Hospital) and fresh blood [healthy donors] was washed and stored at 50% hematocrit at 4°C up to 1 month past the clinical expiration date and collection date, respectively. Parasite strains provided by the Malaria Research and Reference Reagent Resource Center (MR4) as follows: 3D7 (MRA-102); K1 (MRA-159); D10 (MRA-201); and IPC-5202 (MRA-1240). […]
(§5) Asynchronous cultures diluted to 1% parasitemia in 100μL wells were subjected to drug dilutions, solvent controls, and untreated uninfected erythrocyte controls in technical duplicates. Following a three-day incubation, DNA content was quantified using Picogreen (Life Technologies), as previously described ([Corbett et al., 2004]). Half-maximal effective concentrations (EC50) were determined from nonlinear regression of three biological replicates (GraphPad Prism). […]
(§6) Supplemental Table 5. […] Half-maximal inhibitor concentrations (EC50s) were determined for drug resistant malaria parasites and compared to the sensitive 3D7 strain. The respective EC50s are calculated from each of the independent biological replicates using a non-linear regression of the log of the inhibitor concentration with data from each technical replicate normalized to maximal and minimal growth using the software package GraphPad Prism. […]
(§7) means ± s.e.m calculated from three biological replicates.

The subject of series [9] is P. falciparum D10 (mefloquine resistant). The series can be described thus: Plasmodium falciparum growth inhibition assay, drug-resistant line D10. The series is classed as cell-based. Particulars: D10, mefloquine resistant, means ± s.e.m, read-out: EC50 (nM), P. falciparum D10. On the procedure:
as §4, §5, §6, §7

Series [10] deals with P. falciparum K1 (chloroquine and sulfadoxine-pyrimethamine resistant). The series can be described thus: Plasmodium falciparum growth inhibition assay, drug-resistant line K1. The series is classed as cell-based. The settings on record: K1, chloroquine and sulfadoxine-pyrimethamine resistant, means ± s.e.m, read-out: EC50 (nM), P. falciparum K1. On the procedure:
as §4, §5, §6, §7

The test system of series [11] is luciferase-expressing P. berghei ANKA parasites. Description: In vivo efficacy against blood stage parasite burden (luciferase imaging). More on the design: species or system Swiss-Webster mice. The settings on record: i.p. daily for five days; 30mg/kg POM-HEX, 5mg/kg POM-SF. On the procedure:
as §1

Turning to `O=CC[C@@H](O)[C@H](O)[C@H](O)CO` [Compound 2-DG, 2-deoxyglucose, reference compound], in [1] (2DG 200 mg/kg, POM-HEX 30 mg/kg), the “effect on clinical score, overall survival, cerebral malaria (in words)” value is “did not improve”. This compound also came in with a parasitemia in series [1] (HEX 100 mg/kg, 2DG 200 mg/kg) of 13.3±3.9%.
With `Cc1cc(Nc2ccc(S(F)(F)(F)(F)F)cc2)n2nc(C(C)(F)F)nc2n1` [DSM265], in [2], the EC50 is 0.053 µM.
On to `O=C1C(P(=O)(O)O)CCCN1O` (stereo not drawn) [HEX], for which, in [3], the “S.I. + pyruvate (Supplemental Table 4)” value was 27.8, the “S.I. - pyruvate (Supplemental Table 4)” value is recorded as 26.3, the “S.I. Fold Change (Supplemental Table 4)” value amounted to 1.1 and the “T.I. Fold change” value was found to be 1.1. Moreover, in series [3], the “T.I. + pyruvate” value was determined as 27.8 and the T.I. - pyruvate is listed as 26.3. Also, the EC50 in series [3] (3D7, read-out: Parasite EC50 - pyruvate) amounted to 19000 ± 1000 nM. The EC50 in series [3] (3D7, read-out: half maximal effective concentrations (EC50s), parasite growth) was above 15000 nM. In addition, the “selectivity for antiparasitic activity over erythrocyte toxicity (in words)” value in [3] (parasite growth versus MetHb formation) is listed as “notably selective”. Moreover, in series [4] (read-out: MetHb EC50 + pyruvate (Supplemental Table 4)), the EC50 was above 500 µM. The EC50 in [4] (read-out: MetHb EC50 - pyruvate) is above 500 µM. Besides, the EC50 in series [4] (read-out: MetHb EC50 - pyruvate (Supplemental Table 4)) is above 500 µM. Also, in series [5], the “plasma concentrations at 1hr” value is given as above 500 µM. Moreover, in series [6] (400 mg/kg dose SC, detection limit ~1 µM), the “HEX concentration in plasma, 2 hr time point” value is “undetectable”. Further, in series [6] (400mg/kg sub-cutaneous), the serum half-life result is recorded as “minutes”. Also, the concentration at 1 hr in series [6] (female, mouse, plasma, 400 mg/kg dose SC, read-out: HEX concentration in plasma, 1hr after injection) is around 170 µM. For the same compound, the survival in series [1] (HEX 100 mg/kg daily from day 2, Mantel-Cox) is recorded as 14 days. In addition, the parasitemia in series [1] (HEX 100 mg/kg, 2DG 200 mg/kg) came out at 3.5±1.3%. The “clinical scores (signs of cerebral malaria)” value in series [1] (d6, HEX 100 mg/kg, vehicle 15.0±7.3) was found to be 3.8±2.0. Besides, the “mice alive on day 15” value in [1] (n=5, HEX 100 mg/kg, sacrificed due to high parasitemia and elevated clinical score) is “two mice remained alive”. For the same compound, the half-life in [7] (monkey, 100 mg/kg sub-cutaneous, serum/plasma, 100 mg/kg) is ~ 1 hr. The “oral bioavailability (in words)” value in series [7] (monkey, 400 mpk by oral gavage) is listed as “orally bioavailable”. Besides, the “time serum concentrations remain above the in vitro EC50 concentrations against Plasmodium” value in series [7] (non-human primates, 100mg/kg sub-cutaneous) is on record as “at least four hours”.
With `CC(C)(C)C(=O)OCOP(=O)(OCOC(=O)C(C)(C)C)C1CC(O)N(O)C1=O` (stereo not drawn) [POM-SF], the “S.I. + pyruvate (Supplemental Table 4)” value in series [3] was found to be 1.9. Moreover, in [3], the “S.I. - pyruvate (Supplemental Table 4)” value was 0.1. For the same compound, the EC50 in series [3] (3D7, 72 h, P. falciparum growth, presence of 1mM pyruvate, mean ± s.e.m., read-out: Parasite EC50 + pyruvate) was determined as 250 ± 10 nM; in series [3] (3D7, P. falciparum growth, absence of 1mM pyruvate, mean ± s.e.m., 500 = highest concentration tested, EC50 not resolved, read-out: Parasite EC50 - pyruvate) it was 710 ± 40 nM; in series [3] (3D7, means ± s.e.m, three biological replicates, read-out: EC50 (nM), P. falciparum 3D7 (pan-sensitive)), 185 ± 18 nM; in series [4] (MetHb formation, absence of 1mM pyruvate, mean ± s.e.m., 500 = highest concentration tested, EC50 not resolved, read-out: MetHb EC50 - pyruvate) it was 0.1 ± 0.002 µM; in [4] (MetHb formation, presence of 1mM pyruvate, mean ± s.e.m., 500 = highest concentration tested, EC50 not resolved, read-out: MetHb EC50 + pyruvate) it was 0.48 ± 0.01 µM; in series [8] it was 321 ± 11 nM. Moreover, the EC50 in [9] worked out at 437 ± 83 nM; in series [10], 361 ± 34 nM. Besides, the “S.I. Fold Change (Supplemental Table 4)” value in [3] is listed as 13.6. The “T.I. Fold change” value in series [3] was found to be 13.6. Besides, the “T.I. + pyruvate” value in [3] is given as 1.9. Further, the T.I. - pyruvate in [3] was determined as 0.1. Further, the “effect on parasite burden (in words)” value in series [11] is listed as “does not forestall a lethal parasite burden”.
With `COc1cc(C)c2c(Oc3cccc(C(F)(F)F)c3)c(OC)cc(NC(C)CCCN)c2n1` (stereo not drawn) [tafenoquine], in [2], the EC50 is 0.436 µM.
